US8637525B2, “Compounds for the reduction of beta-amyloid production” (Bristol-Myers Squibb Company, priority 2009, dated 2014)
Where a name gives a salt, the structure may show the parent alone. Read-outs that look alike come from different tables or passages of the source.

Test system: Aβ1-42 production
Assay: Cellular assay for inhibition of Aβ1-42 production (H4 APP751 SWE clone 8.20)
Format: cell-based
Conditions: H4 APP751 SWE clone 8.20 cells, 19 h incubation
How it was run: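 Secreted peptide was quantified with a two-antibody homogeneous format combining Wallac-labelled 565, which recognises the Aβ42 end, and APC-labelled 26D6 at 0.8 and 75 ng/well respectively. Antibodies were diluted in 40 mM Tris-HCl, pH 7.4, 0.2% BSA and left overnight at 4 °C after a 19 h compound incubation.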

[1] = class symbols, read-out: Activity Rating (Aβ42 cellular IC50)
[2] = 19 h, class symbols, read-out: Activity Rating (Aβ42 cellular IC50)
[3] = 19 h, read-out: Activity Rating (Aβ42 cellular IC50), numeric value

Compound | IC50 [1] | IC50 [2] | other results
COc1cc(Nc2nc3c(c(N4CC(F)(F)C4)n2)COCC3c2ccc(Cl)cc2)ccc1-n1cnc(Cl)c1 (single isomer, unassigned) [Example 66B, N-(4-(4-chloro-1H-imidazol-1-yl)-3-methoxyphenyl)-8-(4-chlorophenyl)-4-(3,3-difluoroazetidin-1-yl)-7,8-dihydro-5H-pyrano[4,3-d]pyrimidin-2-amine] | 1.5 to 9.9 nM | – | –
COc1cc(Nc2nc3c(c(N4CC[C@@H](F)C4)n2)COC3c2ccc(F)cc2)ccc1-n1cnc(Cl)c1 (mixture of isomers) [Example 83, N-(4-(4-chloro-1H-imidazol-1-yl)-3-methoxyphenyl)-7-(4-fluorophenyl)-4-((R)-3-fluoropyrrolidin-1-yl)-5,7-dihydrofuro[3,4-d]pyrimidin-2-amine, 2 TFA] | – | – | IC50 (class symbols, TFA, read-out: Activity Rating (Aβ42 cellular IC50)): 10 to 100 nM
COc1cc(Nc2nc(N[C@H](C)C3CC3)c3c(n2)C(c2ccc(F)cc2)OC3)ccc1-n1cnc(Cl)c1 (stereo partly drawn) [Example 81, N2-(4-(4-chloro-1H-imidazol-1-yl)-3-methoxyphenyl)-N4-((R)-1-cyclopropylethyl)-7-(4-fluorophenyl)-5,7-dihydrofuro[3,4-d]pyrimidine-2,4-diamine, TFA] | – | 10 to 100 nM | –
CNc1nc(Nc2ccc(-n3ncnc3C)c(F)c2)nc2c1CCC2c1ccc(F)cc1 (single isomer, unassigned) [Example 26A, N^2-(3-fluoro-4-(5-methyl-1H-1,2,4-triazol-1-yl)phenyl)-7-(4-fluorophenyl)-N^4-methyl-6,7-dihydro-5H-cyclopenta[d]pyrimidine-2,4-diamine] | – | 10 to 100 nM | –
CCC1CCCN1c1nc(Nc2ccc(-n3cnc(Cl)c3)c(OC)c2)nc2c1CCC2c1ccc(F)cc1 (single isomer, unassigned) [Example 23, N-(4-(4-chloro-1H-imidazol-1-yl)-3-methoxyphenyl)-4-(2-ethylpyrrolidin-1-yl)-7-(4-fluorophenyl)-6,7-dihydro-5H-cyclopenta[d]pyrimidin-2-amine] | 10 to 100 nM | – | –
COc1cc(Nc2nc3c(c(N4CC(OC)C4)n2)CCC3c2ccccc2)ccc1-n1cnc(Cl)c1 (stereo not drawn) [Example 183, N-(4-(4-chloro-1H-imidazol-1-yl)-3-methoxyphenyl)-4-(3-methoxyazetidin-1-yl)-7-phenyl-6,7-dihydro-5H-cyclopenta[d]pyrimidin-2-amine] | – | – | IC50 [3]: 11 nM
CNc1nc(Nc2ccc(-n3cnc(Cl)c3)c(OC)c2)nc2c1COCC2c1ccc(F)c(F)c1 (stereo not drawn) [Example 115B, N2-(4-(4-chloro-1H-imidazol-1-yl)-3-methoxyphenyl)-8-(3,4-difluorophenyl)-N4-methyl-7,8-dihydro-5H-pyrano[4,3-d]pyrimidine-2,4-diamine] | 10 to 100 nM | – | –
COc1cc(Nc2nc3c(c(N4CC[C@@H](F)C4)n2)CCC3c2ccc(F)cc2)ccc1-n1cnc(Cl)c1 (stereo partly drawn) [Example 38, N-(4-(4-chloro-1H-imidazol-1-yl)-3-methoxyphenyl)-7-(4-fluorophenyl)-4-((R)-3-fluoropyrrolidin-1-yl)-6,7-dihydro-5H-cyclopenta[d]pyrimidin-2-amine] | – | 10 to 100 nM | –
CCNc1nc(Nc2ccc(-n3ncnc3C)c(F)c2)nc2c1COC2c1ccc(F)cc1 (single isomer, unassigned) [Example 78B, N^4-ethyl-N^2-(3-fluoro-4-(5-methyl-1H-1,2,4-triazol-1-yl)phenyl)-7-(4-fluorophenyl)-5,7-dihydrofuro[3,4-d]pyrimidine-2,4-diamine] | – | 10 to 100 nM | –
CCNc1nc(Nc2ccc(-n3cnc(C)n3)c(F)c2)nc2c1CN(CC(F)F)CC2c1ccccc1 (stereo not drawn) [Example 195, 6-(2,2-difluoroethyl)-N4-ethyl-N2-(3-fluoro-4-(3-methyl-1H-1,2,4-triazol-1-yl)phenyl)-8-phenyl-5,6,7,8-tetrahydropyrido[4,3-d]pyrimidine-2,4-diamine] | – | – | IC50 [3]: 17 nM
CNc1nc(Nc2ccc(-n3ncnc3C)c(F)c2)nc2c1CCC2c1ccccc1 (single isomer, unassigned) [Example 3A, N^2-(3-fluoro-4-(5-methyl-1H-1,2,4-triazol-1-yl)phenyl)-N^4-methyl-7-phenyl-6,7-dihydro-5H-cyclopenta[d]pyrimidine-2,4-diamine] | 1.5 to 9.9 nM | – | –
COc1cc(Nc2nc3c(c(N4CCC4)n2)CCC3c2ccc(OC(F)(F)F)cc2)ccc1-n1cnc(Cl)c1 (racemic) [Example 101, 4-(Azetidin-1-yl)-N-(4-(4-chloro-1H-imidazol-1-yl)-3-methoxyphenyl)-7-(4-(trifluoromethoxy)phenyl)-6,7-dihydro-5H-cyclopenta[d]pyrimidin-2-amine] | – | 10 to 100 nM | –
CCNc1nc(Nc2ccc(-n3cnc(Cl)c3)c(OC)c2)nc2c1CCC2(C)c1ccccc1 (stereo not drawn) [Example 110B, N2-(4-(4-chloro-1H-imidazol-1-yl)-3-methoxyphenyl)-N4-ethyl-7-methyl-7-phenyl-6,7-dihydro-5H-cyclopenta[d]pyrimidine-2,4-diamine] | 10 to 100 nM | – | –
CCNc1nc(Nc2ccc(-n3ncnc3C)c(F)c2)nc2c1COCC2c1ccc(F)c(F)c1 (stereo not drawn) [Example 116B, 8-(3,4-difluorophenyl)-N4-ethyl-N2-(3-fluoro-4-(5-methyl-1H-1,2,4-triazol-1-yl)phenyl)-7,8-dihydro-5H-pyrano[4,3-d]pyrimidine-2,4-diamine] | 100 to 1000 nM | – | –
CNc1nc(Nc2ccc(-n3cnc(Cl)c3)c(OC)c2)nc2c1COCC2c1ccc(F)cc1 (racemic) [Example 60, N2-(4-(4-chloro-1H-imidazol-1-yl)-3-methoxyphenyl)-8-(4-fluorophenyl)-N4-methyl-7,8-dihydro-5H-pyrano[4,3-d]pyrimidine-2,4-diamine] | – | 1.5 to 9.9 nM | –

Further lines, with some results ahead:

IC50 [1] | IC50 [2] | Compound | other results
– | 1.5 to 9.9 nM | CNc1nc(Nc2ccc(-n3cnc(Cl)c3)c(OC)c2)nc2c1CN(C)CC2c1ccccc1 (stereo not drawn) [Example 148A, N2-(4-(4-chloro-1H-imidazol-1-yl)-3-methoxyphenyl)-N4,6-dimethyl-8-phenyl-5,6,7,8-tetrahydropyrido[4,3-d]pyrimidine-2,4-diamine] | –
– | 1.5 to 9.9 nM | CNc1nc(Nc2ccc(-c3cnn(C)c3)c(OC)c2)nc2c1CCC2c1ccccc1 (stereo not drawn) [Example 209, N2-(3-methoxy-4-(1-methyl-1H-pyrazol-4-yl)phenyl)-N4-methyl-7-phenyl-6,7-dihydro-5H-cyclopenta[d]pyrimidine-2,4-diamine] | –
1.5 to 9.9 nM | – | [2H]C([2H])([2H])Nc1nc(Nc2ccc(-n3cnc(Cl)c3)c(OC)c2)nc2c1CCC2c1ccccc1 (single isomer, unassigned) [Example 176A, N^2-(4-(4-Chloro-1H-imidazol-1-yl)-3-methoxyphenyl)-N^4-trideuteromethyl-7-phenyl-6,7-dihydro-5H-cyclopenta[d]pyrimidine-2,4-diamine] | –
– | 10 to 100 nM | CCNc1nc(Nc2ccc(-n3cnc(Cl)c3)c(OC)c2)nc2c1CN(C(=O)C1CC1)CC2c1ccccc1 (stereo not drawn) [Example 132, (2-(4-(4-chloro-1H-imidazol-1-yl)-3-methoxyphenylamino)-4-(ethylamino)-8-phenyl-7,8-dihydropyrido[4,3-d]pyrimidin-6(5H)-yl)(cyclopropyl)methanone] | –
– | 10 to 100 nM | CCN(C)c1nc(Nc2ccc(-n3cnc(Cl)c3)c(OC)c2)nc2c1CCCC2c1ccc(F)cc1 (stereo not drawn) [Example 126, N^2-(4-(4-Chloro-1H-imidazol-1-yl)-3-methoxyphenyl)-N^4-ethyl-8-(4-fluorophenyl)-N^4-methyl-5,6,7,8-tetrahydroquinazoline-2,4-diamine] | –
– | > 1000 nM | CNc1nc(Nc2ccc(C3CC3)cc2)nc2c1CCC2c1ccc(F)cc1 (stereo not drawn) [Example 258, N2-(4-cyclopropylphenyl)-7-(4-fluorophenyl)-N4-methyl-6,7-dihydro-5H-cyclopenta[d]pyrimidine-2,4-diamine] | –
– | 1.5 to 9.9 nM | CNc1nc(Nc2ccc(-n3cnc(C)n3)c(OC)c2)nc2c1CC[C@H]2c1ccccc1Cl (single isomer, unassigned) [Example 268A] | –
1.5 to 9.9 nM | – | CCNc1nc(Nc2ccc(-n3cnc(Cl)c3)c(OC)c2)nc2c1CCN(CC)C2c1ccc(F)cc1 (single isomer, unassigned) [Example 169A, N2-(4-(4-chloro-1H-imidazol-1-yl)-3-methoxyphenyl)-N4,7-diethyl-8-(4-fluorophenyl)-5,6,7,8-tetrahydropyrido[3,4-d]pyrimidine-2,4-diamine] | –
– | 1.5 to 9.9 nM | CCNc1nc(Nc2ccc(-n3cnc(Cl)c3)c(OC)c2)nc2c1CN(C)CC2c1ccccc1 (stereo not drawn) [Example 151, N2-(4-(4-chloro-1H-imidazol-1-yl)-3-methoxyphenyl)-N4-ethyl-6-methyl-8-phenyl-5,6,7,8-tetrahydropyrido[4,3-d]pyrimidine-2,4-diamine] | –
– | 10 to 100 nM | COc1cc(Nc2nc3c(c(N(C)C)n2)CCCC3c2ccc(F)cc2)ccc1-n1cnc(Cl)c1 (racemic) [Example 127, N^2-(4-(4-Chloro-1H-imidazol-1-yl)-3-methoxyphenyl)-8-(4-fluorophenyl)-N^4,N^4-dimethyl-5,6,7,8-tetrahydroquinazoline-2,4-diamine] | –
1.5 to 9.9 nM | – | CCN(C)c1nc(Nc2ccc(-n3cnc(Cl)c3)c(OC)c2)nc2c1CCCC2c1ccccc1 (single isomer, unassigned) [Example 124A, N^2-(4-(4-Chloro-1H-imidazol-1-yl)-3-methoxyphenyl)-N^4-ethyl-N^4-methyl-8-phenyl-5,6,7,8-tetrahydroquinazoline-2,4-diamine] | –
1.5 to 9.9 nM | – | CNc1nc(Nc2ccc(-n3cnc(Cl)c3)c(OC)c2)nc2c1CN(S(C)(=O)=O)CC2c1ccc(F)cc1 (stereo not drawn) [Example 154A, N2-(4-(4-chloro-1H-imidazol-1-yl)-3-methoxyphenyl)-8-(4-fluorophenyl)-N4-methyl-6-(methylsulfonyl)-5,6,7,8-tetrahydropyrido[4,3-d]pyrimidine-2,4-diamine] | –
